Measurements from EP0462935B1, “Enantiomers of 2-tetrahydrofuran derivatives, intermediates therefor and their preparation” (SANDOZ AG, priority 1990, dated 1991).
Structures can show the parent of a compound that is named as a salt.

Key:
[1] = test system: Experimental allergic encephalomyelitis; assay: Experimental allergic encephalomyelitis (EAE test), preventive treatment; assay type: in vivo, rat; conditions: for Animals with total paralysis) % / Animals with total paralysis) No./total: preventive treatment, 25 mg/kg/day p.o., rat; for Animals with total paralysis) No./total: number of animals with total paralysis per total number of rats treated
Experimental: 1. Experimental allergic encephalomyelitis (EAE test) in the rat; preventive treatment:
[Levine et al., Am. J. Path. 47 (1965) 61; McFarlin et al., J. Immunol. 113 (1974) 712; Borel, Transplant. & Clin. Immunol. 13 (1981) 3]:
Male Wistar rats are injected in the hind paws with 0.1 ml of a mixture of bovine spinal cord and complete Freund's adjuvant. The test compound is administered at dosages of from 5 to 50 mg/kg/day p.o. 5 days a week, commencing on the day of sensitization and continuing for 2 weeks. Onset of EAE in control groups receiving no medication generally commences between 9 to 16 days after sensitization and is marked by symptoms of paralysis in the hind limbs and tail. Test animals are examined daily for symptoms of the disease and disease occurrence is scored according to their severity. Total paralysis means complete involvement of both hind legs and tail. The test animals are kept under observation for a total period of 50 days.

[2] = test system: Delayed-type hypersensitivity; assay: Delayed-type hypersensitivity (DTH test) mediated by cloned helper T cells; assay type: in vivo, mouse; conditions: footpad swelling after 24 h
Experimental: 4. Delayed-type hypersensitivity (DTH test) in the mouse:
Suppression of DTH mediated by cloned helper T cells is tested with mice injected subcutaneously with cloned helper T cells together with the relevant antigen, namely sheep erythrocytes, in one hind footpad and with the same clone plus an unrelated antigen as control in the other footpad. The drugs are administered orally twice, first one day before and again at the time of the cell injection. After 24 h the increase in footpad thickness is measured. Footpad swelling is indicated as percentage compared with the control group (placebo).

YAC-1 = assay: Tumor cell cytotoxicity test (TCC test); assay type: cell-based; conditions: 72 hours
Experimental: (§1) 1. Tumor cell cytotoxicity test (TCC test):
(§2) In flat bottom microtiter plates (Nunc Roskieide, Denmark) are placed Abelson 8.1 lymphoma, YAC-1, L1210 or P815 tumor cells in Dulbecco modified Eagle's medium (DMEM) + 10 % fetal calf serum and the tumor cell-containing plates are incubated with 1, 3 and 5 »g of the test compound for a period of 6 to 72 hours. The number of viable tumor cells present in the Abelson 8.1, YAC-1, L1210 and P815 assays is determined by measuring the alkaline phosphatase in the following manner: the tumor cell plates are centrifuged (500 x g) for ten minutes and the supernatant flicked off. Without further washing, 100 »l of buffer containing 20 »l of diethanolamine, 2 »M of MgCl₂·6H₂O, 2.5 »M of p-nitrophenylphosphate and 10 mg Triton X-100 are added. The samples are incubated for 60 minutes at room temperature and the enzymatic reaction is terminated by the addition of 100 »l of 0.5 N NaOH. The absorbance is then measured at […] using a Titertek Multiskan apparatus.
(§3) At an incubation period of 72 hours the following results were obtained: […]

P815 = assay: Tumor cell cytotoxicity test (TCC test); assay type: cell-based; conditions: 72 hours
Experimental: as §1, §2, §3

Abelson 8.1 lymphoma = assay: Tumor cell cytotoxicity test (TCC test); assay type: cell-based; conditions: 72 hours
Experimental: as §1, §2, §3

L1210 = assay: Tumor cell cytotoxicity test (TCC test); assay type: cell-based; conditions: 72 hours
Experimental: as §1, §2, §3

Meth A fibrosarcoma = assay: In vivo Meth A fibrosarcoma test; parameters: species or system mouse; conditions: for Tumor volume (% of control) day 7: day 7 after tumor implantation; for Survivors (tumor free): ten CBF₁ mice
Experimental: In vivo Meth A fibrosarcoma test in the mouse:
Ten CBF₁ mice of 10-12 week age are each implanted with 7.3 x 10⁶ Meth A sarcoma cells to serve as control. A second group of ten CBF₁ mice are each implanted with 7.3 x 10⁶ Meth A sarcoma cells and on day one after implant each mouse is treated p.o. with from 5 »g to 50 »g of the test compound per day for a total of twenty or twenty-seven days. Tumor growth and survivors are assayed on days 7, 14, 21 and 28 after tumor implantation.

[3] = test system: Experimental allergic encephalomyelitis; assay: Experimental allergic encephalomyelitis (EAE test), therapeutic treatment; assay type: in vivo, rat
Experimental: 2. Experimental allergic encephalomyelitis (EEA test) in the rat; therapeutic treatment:
Testing is carried out analogously to that described above with the exception that the administration of the test compound commences on day 7 after sensitization (i.e. immediately prior to appearance of disease symptoms) at dosages of from 5 to 50 mg/kg/day p.o. either daily or every second day and continuing for one week. During the testing period the animals are examined daily for symptoms of the disease and scored as in the previous test method.

[4] = test system: Chronic relapsing experimental allergic encephalomyelitis; assay: Chronic relapsing experimental allergic encephalomyelitis (CR-EAE test), therapeutic treatment; assay type: in vivo, rat; conditions: 5 to 50 mg/kg/day p.o. for 16 days starting on day 16; for inhibiting the appearance of mild to severe clinical symptoms: for the period of treatment; for protective efficacy: during treatment and following discontinuation of drug

SMILES | Animals with total paralysis) % [1] [%] | Animals with total paralysis) No./total [1] | Suppression of DTH (%) ([2]; 2 x 40 mg/kg orally) | Suppression of DTH (%) ([2]; 2 x 80 mg/kg orally) | Inhibition with tumor cells (%) YAC-1 (YAC-1; 1 »g/ml) [%] | Inhibition with tumor cells (%) YAC-1 (YAC-1; 3 »g/ml) [%] | Inhibition with tumor cells (%) YAC-1 (YAC-1; 5 »g/ml) [%] | Inhibition with tumor cells (%) P815 (P815; 1 »g/ml) [%] | Inhibition with tumor cells (%) P815 (P815; 3 »g/ml) [%] | Inhibition with tumor cells (%) P815 (P815; 5 »g/ml) [%] | Inhibition with tumor cells (%) Abelson 8.1 (Abelson 8.1 lymphoma; 1 »g/ml) [%] | Inhibition with tumor cells (%) Abelson 8.1 (Abelson 8.1 lymphoma; 3 »g/ml) [%] | Inhibition with tumor cells (%) Abelson 8.1 (Abelson 8.1 lymphoma; 5 »g/ml) [%] | Inhibition with tumor cells (%) L1210 (L1210; 1 »g/ml) [%] | Inhibition with tumor cells (%) L1210 (L1210; 3 »g/ml) [%] | Inhibition with tumor cells (%) L1210 (L1210; 5 »g/ml) [%] | Tumor volume (% of control) day 7 (Meth A fibrosarcoma; 5 »g per mouse per day p.o.) | Tumor volume (% of control) day 14 (Meth A fibrosarcoma; 5 »g per mouse per day p.o.) | Tumor volume (% of control) day 21 (Meth A fibrosarcoma; 5 »g per mouse per day p.o.) | Tumor volume (% of control) day 28 (Meth A fibrosarcoma; 5 »g per mouse per day p.o.) | further results
CCCCCCCCCCCCCCCCCCOCC1(COP(=O)([O-])OCC[N+](C)(C)C)CCCO1 (racemic) [Example 5 of USP 4'673'672, reference compound] | 43 | 3/7 | 31 | 88 | 19 | 74 | 91 | 40 | 87 | 95 | 68 | 97 | 98 | 0 | 80 | 91 | 82 % of control | 47 % of control | 20 % of control | 32 % of control | Survivors (tumor free) (Meth A fibrosarcoma; 5 »g per mouse per day p.o.): 3/10; Tumor volume (% of control) day 7 (Meth A fibrosarcoma; 50 »g per mouse per day p.o.): 76 % of control; Tumor volume (% of control) day 14 (Meth A fibrosarcoma; 50 »g per mouse per day p.o.): 38 % of control; Tumor volume (% of control) day 21 (Meth A fibrosarcoma; 50 »g per mouse per day p.o.): 14 % of control; Tumor volume (% of control) day 28 (Meth A fibrosarcoma; 50 »g per mouse per day p.o.): 21 % of control; Survivors (tumor free) (Meth A fibrosarcoma; 50 »g per mouse per day p.o.): 6/10; Animals with EAE) % ([3]; therapeutic treatment from day 7, 25 mg/kg/day p.o., rat): 29%; Animals with EAE) No./total ([3]; therapeutic treatment from day 7, 25 mg/kg/day p.o., rat, number of animals with symptoms of disease per total number of rats treated): 2/7
CCCCCCCCCCCCCCCCCCOCC1(COP(=O)([O-])OCC[N+](C)(C)C)CCCO1 (racemic) [compound of Example 5 of USP 4'673'672] | – | – | – | – | – | – | – | – | – | – | – | – | – | – | – | – | – | – | – | – | inhibiting the appearance of mild to severe clinical symptoms [4]: effective
CCCCCCCCCCCCCCCCCCOC[C@@]1(COP(=O)([O-])OCC[N+](C)(C)C)CCCO1 [Compound of formula I, (R)-2-[(2-Octadecyloxymethyltetrahydrofuran-2-ylmethoxy)-hydroxyphosphinyloxy]-N,N,N-trimethylethanaminium hydroxide inner salt-4-oxide] | 36 | 5/14 | 73 | 88 | 8 | 86 | 96 | 32 | 80 | 97 | 29 | 93 | 95 | 16 | 76 | 87 | 90 % of control | 52 % of control | 21 % of control | 37 % of control | protective efficacy [4]: effective to fully protect all animals both during treatment and following discontinuation of drug; inhibiting the appearance of mild to severe clinical symptoms [4]: effective; occurrence of clinical symptoms ([1]; 5 to 50 mg/kg/day p.o. 5 days a week for 2 weeks, versus placebo control groups): substantial reduction of occurrence of clinical symptoms; Survivors (tumor free) (Meth A fibrosarcoma; 5 »g per mouse per day p.o.): 2/10; Tumor volume (% of control) day 7 (Meth A fibrosarcoma; 50 »g per mouse per day p.o.): 85 % of control; Tumor volume (% of control) day 14 (Meth A fibrosarcoma; 50 »g per mouse per day p.o.): 53 % of control; Tumor volume (% of control) day 21 (Meth A fibrosarcoma; 50 »g per mouse per day p.o.): 21 % of control; Tumor volume (% of control) day 28 (Meth A fibrosarcoma; 50 »g per mouse per day p.o.): 32 % of control; Survivors (tumor free) (Meth A fibrosarcoma; 50 »g per mouse per day p.o.): 3/10; appearance of EAE disease symptoms ([3]; 5 to 50 mg/kg/day p.o. from day 7 for one week, versus placebo control groups): substantial reduction of appearance of EAE disease symptoms
CCCCCCCCCCCCCCCCCCOC[C@]1(COP(=O)([O-])OCC[N+](C)(C)C)CCCO1 [Enantiomer of the compound of formula I, (S)-2-[(2-Octadecyloxymethyltetrahydrofuran-2-ylmethoxy)-hydroxyphosphinyloxy)-N,N,N-trimethylethanaminium hydroxide inner salt-4-oxide] | 86 | 12/14 | 16 | 40 | 40 | 78 | 91 | 84 | 93 | 97 | 91 | 98 | 98 | 45 | 92 | 97 | 66 % of control | 19 % of control | 6 % of control | 11 % of control | protective efficacy [4]: much less effective protective efficacy during treatment; Survivors (tumor free) (Meth A fibrosarcoma; 5 »g per mouse per day p.o.): 8/10; Survivors (tumor free) (Meth A fibrosarcoma; 5 »g per mouse per day p.o., listed as (S)-isomer): 8 out of 10; Tumor volume (% of control) day 7 (Meth A fibrosarcoma; 50 »g per mouse per day p.o.): 70 % of control; Tumor volume (% of control) day 14 (Meth A fibrosarcoma; 50 »g per mouse per day p.o.): 28 % of control; Tumor volume (% of control) day 21 (Meth A fibrosarcoma; 50 »g per mouse per day p.o.): 8 % of control; Tumor volume (% of control) day 28 (Meth A fibrosarcoma; 50 »g per mouse per day p.o.): 13 % of control; Survivors (tumor free) (Meth A fibrosarcoma; 50 »g per mouse per day p.o.): 8/10
